Test results published in ChEMBL document CHEMBL3507680, “University of Dundee, Gates Library screen for HepG2 cell viability”.

assay: Human HepG2 cell viability assay in 384 well format; assay type: toxicity, cell-based; design: dose 125 nL, time 70.5 hour; cytotoxicity at 70.5 h: concentration not given beside the values; settings: HepG2 cells, read-out: Inhibition

In order of rising cytotoxicity at 70.5 h:
1. COc1ccc(C(N)=O)cc1NCc1nc(-c2cccs2)oc1C  -102%
2. CC(C)n1ncc2c1NC(=O)CSC2C(F)(F)F (centres undefined)  -21%
3. Cc1ccc(C(CNCc2cccc3c2OCO3)N2CCOCC2)o1 (centres undefined)  -17%
4. CNC(=O)c1nc(CN2CCOC(Cc3ccc(F)cc3)C2)no1 (centres undefined)  -15.2%
5. CC(C)(C)OC(=O)NCC1CCN(C(=O)c2cc(Cl)c[nH]2)CC1  -14.2%
6. CN(Cc1cc(-c2ccccc2)no1)C1CCCN(c2cccnn2)C1 (centres undefined)  -13.5%
7. CC(C)(C)n1ncc2c(=O)n(CC(=O)NCCc3ccccc3)cnc21  -13.5%
8. Cc1oc(-c2ccsc2)nc1CC(=O)NCCS(C)(=O)=O  -12.9%
9. Cc1cnn(CC2CCCCN2Cc2cnc(C)s2)c1 (centres undefined)  -12.5%
10. N#Cc1ccc(SCCC(=O)NC(N)=O)cc1  -12.4%
11. Cc1ccc(NC(=O)NC(C)Cn2cccn2)cc1 (centres undefined)  -11.9%
12. COc1ccc(CNC(=O)NCc2cc(C)oc2C)cc1  -10.8%
13. Cc1cc(C(=O)NCC2CCCO2)c(C)n1-c1cccnc1 (centres undefined)  -10.8%
14. O=C(C1CCOC1)N1CCC2(CCN(Cc3nccs3)C2)CC1 (centres undefined)  -10.1%
15. CC1(C)Cc2nc(C(C)(C)C)ncc2C(NC(=O)CN)C1 (centres undefined)  -10.1%
16. COCCNC(=O)[C@H]1C[C@@H]2CCN(c3ccccc3)C[C@H]2O1  -9.93%
17. CCS(=O)(=O)NCCN1CCN(C(C#N)c2ccccc2)CC1 (centres undefined)  -9.85%
18. O=C(NCC1Cn2nnc(-c3ccoc3)c2CO1)c1ccc[nH]1 (centres undefined)  -9.78%
19. N#CCc1ccc(NC(=O)Cn2cc(I)cn2)cc1  -9.71%
20. COC(=O)c1ccc(S(=O)(=O)NCC(C)(O)c2cccs2)cc1 (centres undefined)  -9.34%
21. CC(C)OCc1noc(C2CCOC2)n1 (centres undefined)  -9.31%
22. CCOc1cccc(C(=O)Nc2ccncc2)c1  -8.85%
23. CC(C)CN1CCO[C@H]2CCN(c3cnccn3)CC[C@@H]21  -8.81%
24. CN1CCNC(=O)C12CCN(Cc1ccco1)CC2  -8.79%
25. COc1cccc(C(=O)N2C[C@@H](c3ccccc3)[C@@H]3NCCCC[C@@H]32)c1  -8.79%
26. CC1CCN(c2cncc(CCC3CCCN3)n2)CC1 (centres undefined)  -8.58%
27. Cc1noc(CS(=O)(=O)c2cc(F)ccc2F)n1  -8.49%
28. CCC1COCCN1C(=O)CNC(=O)c1ccsc1 (centres undefined)  -8.2%
29. Cc1noc(C)c1C(=O)N1C[C@@H]2CCCO[C@@H]2[C@H](N(C)C)C1  -8.14%
30. Cc1cc2ccccc2n1CC(=O)NC(C)C(=O)N1CCOCC1 (centres undefined)  -8.04%
31. Cc1nn(C)c(C)c1NC(=O)Nc1cccnc1N1CCCC1  -7.71%
32. COC(=O)CC1CSCCN1C(=O)CCc1c(C)nn(C)c1C (centres undefined)  -7.68%
33. Cn1nc2c(cc1=O)CN(Cc1coc(-c3cccs3)n1)CC2  -7.48%
34. COCCC(=O)N1C[C@@H](c2ccccc2F)[C@@]2(CCCC(=O)N2)C1  -7.07%
35. CN1CCN(c2ncc3c(c2C(=O)O)CCN(C2CCOC2)C3)CC1 (centres undefined)  -7.02%
36. CC(=O)NCCNC(=O)NCc1ccc(-n2ccc(C(F)(F)F)n2)cc1  -6.79%
37. O=C(Cn1ccc2sccc2c1=O)NCc1ccc2c(c1)OCO2  -6.54%
38. CCc1noc(CN2CCCN(C(C)=O)CC2)n1  -6.42%
39. COc1ncnc2c1CCN(c1cc(C(F)(F)F)ncn1)CC2  -6.15%
40. O=C(c1ccco1)N1C(CN2CCOCC2)[C@]2(O)CC[C@H]1CC2 (some centres undefined)  -6%
41. Cc1ccc(CNC(=O)c2ccc(=O)n(C)n2)c(OC2CCCC2)c1  -5.94%
42. CNC(=O)COc1c(F)cc(Br)cc1C(C)=O  -5.63%
43. NC(=O)C1CCN(C(=O)CCSCc2ccccc2)CC1  -5.5%
44. OCC1CCCCN1CCn1ccnc1-c1ccc2c(c1)OCCO2 (centres undefined)  -5.38%
45. CNC(=O)[C@@H](c1ccccc1OC)N1CCC[C@H]1C(=O)NCCN(C)C  -5.36%
46. Cc1cccc(CNCC2(O)CCCN(CC3CCCCC3)C2=O)n1 (centres undefined)  -5.28%
47. CO[C@@H]1CCN(Cc2ccoc2)[C@H]1Cc1ccccc1  -5.28%
48. CSCc1cccc(S(=O)(=O)NCCCn2ccnc2)c1  -5.18%
49. CC1(C)CN(C(CNC2=NCCN2)c2ccc(Cl)cc2)CCO1 (centres undefined)  -5.1%
50. Cc1cnc2n(c1=O)CC(C(=O)Nc1ccccc1Cl)CS2 (centres undefined)  -5%
51. COc1cccc(-c2cnc(C3CCNCC3)cn2)c1  -4.54%
52. Cc1cc(N2CCCCCC2)n2nc(C)c(C)c2n1  -4.52%
53. O=C([C@@H]1C[C@@H]2CCN(C3CCOCC3)C[C@H]2O1)N1CCCC1  -4.52%
54. CC(C)COC1CCN(C(=O)c2ccc(C(F)(F)F)[nH]c2=O)CC1  -4.17%
55. CCOCCN1C[C@H](c2cccc(OC)c2)[C@@H](N)C1  -4.15%
56. O[C@H]1CCN(CC2CC2)[C@H]1Cc1ccncc1  -4.14%
57. CCc1n[nH]c(C2CN(CC(=O)NCCc3ccsc3)CCO2)n1 (centres undefined)  -3.93%
58. COCCN1CCCn2cnc(CNC(=O)N(C)C)c2C1  -3.75%
59. COC(=O)CCCn1ccnc1-c1ccccc1  -3.23%
60. c1cnc(-c2nc(CN3CCCN(Cc4cccs4)CC3)cs2)nc1  -3.19%
61. CCc1ccc(S(=O)(=O)Nc2cnc(N3CCOCC3)nc2)cc1  -2.95%
62. c1ccc2oc(CCCN3CCc4cncnc4C3)nc2c1  -2.93%
63. O=C(CCc1ccccc1Cl)NS(=O)(=O)c1ccc2c(c1)OCCO2  -2.93%
64. CN(C)c1ccc(C(CNS(=O)(=O)c2cccs2)N2CCCC2)cc1 (centres undefined)  -2.5%
65. CCC(NC(=O)CNC(=O)OC)c1cc(F)ccc1F (centres undefined)  -2.42%
66. CSc1ncc(CNC(C)c2cnn(-c3ccccc3)c2C)cn1 (centres undefined)  -2.21%
67. CN1CCC2(CC1)CN(C)C(=O)C[C@@H]2C(F)(F)F  -2.18%
68. Cn1nc2c(cc1=O)CN(Cc1nc(-c3ccoc3)no1)CC2  -2.1%
69. CCN(CC(=O)Nc1cc(Cl)ccc1C)C(=O)c1ccncc1  -1.81%
70. CCc1nccn1C1CCCN(C(=O)COCC(F)(F)F)C1 (centres undefined)  -1.33%
71. COc1ccc(CN2CCOC3(CCCN(C(C)=O)C3)C2)cc1 (centres undefined)  -1.06%
72. Cc1nc(C(C)(C)C)sc1C(=O)NCCn1cccn1  -0.966%
73. Cc1cccc(-c2noc(CN3CCC(N4CCNC4=O)CC3)n2)c1  -0.858%
74. Cc1ccnn1-c1ccc(C(=O)N2CCN(c3cnccn3)CC2)cc1  -0.832%
75. O=C(Cc1c[nH]c2ccccc12)N1CCC(Nc2cccnc2)CC1  -0.82%
76. CC(C)c1nnc2n1CCN(C(=O)c1ccc3c(c1)COC3)C2  -0.783%
77. CCc1c(C(=O)N2CCN(C)[C@@H]3CS(=O)(=O)C[C@@H]32)[nH]c2ccccc12  -0.756%
78. CN1CC(=O)N(c2ccsc2)CC12CCN(C(=O)CC1CCCC1)C2 (centres undefined)  -0.558%
79. CNC(=O)c1cccnc1NCCOc1ccc(CC#N)cc1  -0.53%
80. c1cncc(N2CCCn3nnc(CN4CCCCC4)c3C2)c1  -0.156%
81. CCN(Cc1cccc(F)c1)S(=O)(=O)N1CCOCC1  0.239%
82. Cc1cnc(N2Cc3nccn3CC(Cn3nc(C)nc3C)C2)nc1 (centres undefined)  0.499%
83. CNC(=O)[C@@H]1[C@@H](c2ccccc2)CN2CCN(Cc3cccs3)C[C@H]12  0.531%
84. O=C(Cc1ccc2c(c1)OCC2)Nc1nc(C(F)(F)F)n[nH]1  0.788%
85. CCOC(=O)N1CCC(OC)c2ccccc2N(C)C(=O)C1 (centres undefined)  1.4%
86. CCCC(=O)N(CCCN1CCOCC1)c1nc2c(Cl)cccc2s1  1.41%
87. CC(C)CC(=O)Nc1ccc(Oc2ccsc2C(=O)O)cc1  1.56%
88. O=C(CSCc1ccncc1)NCC1CCN(C2CC2)C1 (centres undefined)  1.83%
89. Cc1csc(N2CCN(CC(=O)Nc3cc(C)nn3C)CC2C)n1 (centres undefined)  2.09%
90. COc1ccc(NC(=O)CCN2CC=C(c3cnn(C)c3)CC2)c(C)c1  2.12%
91. COc1ccc(CN2CCCC3(CCN(c4ccsc4)C3=O)C2)cc1 (centres undefined)  2.29%
92. O=C(NCCC1CCN(CC(F)(F)F)CC1)C1CCOC1 (centres undefined)  3.01%
93. Cc1c(C(=O)N2CCCC(n3cncn3)C2)cnn1C (centres undefined)  3.32%
94. CN(C)CC1CN(Cc2coc(-c3cccc(F)c3)n2)CCO1 (centres undefined)  3.34%
95. CCN1C[C@@H]2[C@@H](OC)CCN(S(=O)(=O)c3ccccc3)[C@@H]2C1  3.99%
96. CCOCC1CN(Cc2ccoc2)Cc2nn(CC3CC3)cc21 (centres undefined)  5.44%
97. Cc1ccc2[nH]c([C@H]3CCN(CC4CCCCC4)C3)nc2c1  5.77%
98. Cc1nc(N2C[C@H]3CNC[C@H]3C2)c2sccc2n1  5.86%
99. N#Cc1ccc(NC2CCN(c3ncccn3)CC2)cc1Cl  7.18%
100. Cc1ccccc1CN1CCN(C(=O)c2cnc(C3CC3)[nH]c2=O)CC1  7.92%
101. CC(C)NC(=O)[C@H]1C[C@@H]2CN(C(=O)NCCc3ccccc3)C[C@H]1O2  8.95%
102. O=C1NC2(CCN(Cc3ccoc3)CC2)CC1c1ccncc1 (centres undefined)  11%
103. COc1ccc(CN2C[C@@H]3OCCN(CCN4CCCC4)[C@@H]3C2)cc1  11.2%
104. Nc1cc(CC2COc3ccccc3C2)ccn1 (centres undefined)  11.8%
105. CNc1cc(C2CN(C(=O)c3cnn(C)c3)CCO2)nc(C)n1 (centres undefined)  13.9%
106. COCC(=O)NC[C@H]1CC[C@H](c2nnc(-c3ccncc3)o2)CC1  15.8%
107. CC(=O)N1CCCC(c2ccc(Cc3ccccc3)cn2)C1 (centres undefined)  20%
108. COc1cccc(CNC(=O)C(C)n2ccnc2C(C)C)c1OC (centres undefined)  23.8%
109. O=C(Cc1ccc2c(c1)CCC2)N1CCCC1Cn1cccn1 (centres undefined)  26.4%
110. COc1ccc(CNC(=O)CCn2cc(C)cn2)cc1C  26.7%
111. COCCOCC(=O)NCCCOC1CCCc2ccccc21 (centres undefined)  27.2%
112. CC(C)(O)CCc1cccc(C(=O)N2CCC[C@H]2C(N)=O)c1  29.2%
113. CC(C)CN1CCN(C)C2(CCN(c3nccs3)CC2)C1=O  33.2%
114. CCc1noc(C)c1C(=O)N1CCCCC1Cn1cc(C)cn1 (centres undefined)  46.7%
